# Experimental data published in patent publication US12558322B2, “Control method of local release for target compounds by using patterning hydrogel to nanoporous membrane” (KNU-Industry Cooperation Foundation, priority 2018, dated 2026).
# Legend:
# YD-10B cells [1] = assay: Live/dead assay of YD-10B cells on 5-FU containing HAMA hydrogel arrays; format: cell-based, human; details: 5 days
# Procedure: (§1) To estimate the rate of apoptosis of tumor cells at a controlled release anticancer drug rate, YD-10B cells derived from human oral squamous cancer were cultured on a 15% (w/v) HAMA hydrogel-arrayed amphipathic membrane. The amphipathic membrane was prepared at a size of 20 mm×20 mm and was fixed at the bottom of the cell culture dish with the use of PDMS blocks as supporters to prevent floating in the culture media. Overall, YD-10B cells (100 μL, cell density of 1.0×10^6 cells/mL) were seeded on the HAMA hydrogel-arrayed amphipathic membrane that contained 5-FU. As a control group, YD-10B cells without 5-FU were seeded on the array. The cells were cultured in culture media [RPMI (RPMI 1640 medium, HEPES)] (Gibco, CA, USA) with 10% fetal bovine serum (FBS) (Gibco) and 1% penicillin/streptomycin (Gibco) in an incubator (MCO-18AIC, Sanyo, Japan) at 5% CO2 and 37.5° C. After 5 days, the live/dead assay [live/dead viability/cytotoxicity kit (Invitrogen, MA, USA)] was conducted to evaluate anticancer performance. The solution for the live/dead assay was mixed with 20 μL of Ethidium Homodimer-1 (EthD-1) and 5 μL of calcein-AM in 10 mL of DPBS in the dark room. The culture media were eliminated using a micropipette, and the residual media were washed twice by DPBS. The staining solution was added on the arrayed amphipathic membrane and incubated for 40 min. The viability of the YD-10B cells on the amphipathic membrane was evaluated by a fluorescent microscope (Zeiss, Germany). The cytoplasm of live cells was stained with calcein-AM (green fluorescence, excitation wavelength: 488 nm/emission wavelength: 515 nm), while the DNA of dead cells was stained with EthD-1 as fluorescence red (excitation: 570 nm/emission: 602 nm). Additionally, the actin filaments of cells were stained to verify the colony formations of tumor cells. For the fixation of cultured cells, the membrane was washed with DPBS and was immersed in 4% paraformaldehyde (PFA) for 15 min. Triton X-100 was used for permeabilization for 5 min at −20° C. on a PFA-immersed membrane. […]
# YD-10B cells [2] = assay: Actin filament staining of YD-10B cells (colony formation); format: cell-based, human; details: 5-FU encapsulated in HAMA hydrogel array, 5 days
# Procedure: as §1, with “The solution for the live/dead assay was mixed with 20 μL of Ethidium Homodimer-1 (EthD-1) and 5 μL of calcein-AM in 10 mL of DPBS in the dark room. The culture media were eliminated using a micropipette, and the residual media were washed twice by DPBS. The staining solution was added on the arrayed amphipathic membrane and incubated for 40 min.” left out, “nm).” for “nm). Additionally, the actin filaments of cells were stained to verify the colony formations of tumor cells. For the fixation of cultured cells, the membrane was washed with DPBS and was immersed in 4% paraformaldehyde (PFA) for 15 min. Triton X-100 was used for permeabilization for 5 min at −20° C. on a PFA-immersed membrane.”
smiles,measurement,setting,value
O=c1[nH]cc(F)c(=O)[nH]1 [5-FU],reduction of adhesion rate (calcein-AM expression area),"YD-10B cells [1]; 5-FU encapsulated in HAMA hydrogel array, vs without 5-FU",approximately 48%
same,viable cells (live/dead assay),YD-10B cells [1]; HAMA hydrogel arrays containing 5-FU,only a few viable cells were visible
same,adhesion area (calcein-AM),YD-10B cells [1]; cultured with 5-FU in HAMA hydrogel array,"approximately 19,321 μm^2"
same,cell growth and colony formation,YD-10B cells [2],can inhibit the growth and proliferation of cells
